From patent US20240226063A1, “SOLUBLE ANALOGUES OF 6BIO THEREOF AND IMPLEMENTATION THEREOF” (JAWAHARLAL NEHRU CENTRE FOR ADVANCED SCIENTIFIC RESEARCH, priority 2021, published 2024)
Entries after “also recorded” stand apart in the source; their conditions may differ.

Tests used:
[1] = system: autophagy flux; experiment: Autophagy flux (levels of autophagosomes and autolysosomes); assay type: cell-based; conditions: cells, compared to growth media control
Description: The derivatives of 6-BIO such as the compound 6-methoxyindirubin oxime (6-MIO), compound 50 and compound 51 were synthesized to improve their water solubility. The effect of 6-BIO and the aforementioned derivatives of 6-BIO on autophagy flux in the form of autophagosomes and autolysosomes are depicted in FIG. 10. […] Thus, the derivatives have a better potency to restore neuronal function to wild type level in neurodevelopmental disorders and play a neuroprotective role in neurodegeneration.

[2] = system: Syngap1^+/− mice; experiment: Open field test (hyperactivity/motor function and anxiety); assay type: in vivo; conditions: 5 mg/kg intraperitoneal
Protocol: (§1) The ability of 6-BIO on the behavioural deficits related to neurodevelopmental disorders was observed based on its theoretical ability to correct synaptic plasticity, EGABA, and behavioural dysfunction in mice with mutated Syngap1 gene. Two populations of mice tested were: wild type (WT) mice and mice with mutated Syngap1 gene referred to as Syngap1^+/− mice. […] In the control group and the Syngap1^+/− mice, the subjects were administered with 5 mg/kg of 6-BIO based on the bodyweight of the subject. […] For example, 2-9, male mice were used.
Syngap1^+/− mice in groups I, II and III. […]

[3] = system: Syngap1^+/− mice; experiment: Novel object recognition test (memory); assay type: in vivo; conditions: for Novel Object Recognition (memory, discrimination index): 5 mg/kg intraperitoneal
Protocol: as §1
The wild type and Syngap1^+/− mice in the absence of any treatment were compared with the mice intra-peritoneally injected with 6-BIO and their behaviour was recorded with regards to recognition of a familiar object versus reaction to a novel object.

[4] = system: Syngap1^+/− mice; experiment: Social novelty test (social interaction and social preference); assay type: in vivo; conditions: for Social Interference (social interaction, time with stranger 1 vs empty jar) / Social Preference (time with stranger 2 vs stranger 1): 5 mg/kg intraperitoneal
Protocol: as §1
Social Novelty Test: Similar to the novel object recognition in Example 2, the social novelty test was performed for all age groups at 80 days. The social novelty test was performed based on the social interaction (SI) and social preference (SP) of the control wild type and Syngap1^+/− mice and wild type and Syngap1^+/− treated with 6-BIO. The social interaction was observed based on the time spent by the mice in isolation in comparison to time spent with one other mouse (stranger 1) and the social preference was observed based on the time spent with two different mice (stranger 1 and stranger 2)

[5] = system: Syngap1^+/− mice; experiment: Fluoroethyl-based seizure threshold; assay type: in vivo; conditions: intraperitoneal, Group III (P30-80), recorded P80
Protocol: For investigating the effect of 6-BIO on the wild type and Syngap1^+/− mice in group III (P30-P80), mice were injected intraperitoneally with 6-BIO. The subsequent fluoroethyl-based seizure threshold i.e., susceptibility of mice to epileptic seizures was evaluated and plotted as grouped data showing individual points for the involuntary and rhythmic muscular contractions and relaxations referred to as clonus.

[6] = system: Syngap1^+/− mice; experiment: Long term potential; assay type: in vivo; conditions: 5 mg/kg intraperitoneal
[7] = system: Syngap1^+/− mice; experiment: EGABA, Cl^− reversal potential; assay type: in vivo; conditions: 5 mg/kg intraperitoneal, Group I (P10-16), recorded P16
[8] = system: MPTP mice; experiment: MPTP mouse model of Parkinsonism (rotarod and open field test); assay type: in vivo; conditions: 5 mg/kg intraperitoneal, administered along with MPTP
Protocol: The effect of 6-BIO on neurodegenerative disorders such as Parkinson's was evaluated based on testing the ability of 6-BIO on toxic protein aggregates such as the SNCA/a-synuclein protein in mice (FIG. 9) and the modulation of the autophagy flux (FIG. 10). MPTP is a widely accepted mouse model to study Parkinsonism. […] For the study, mice were intraperitoneally injected with 6-BIO at a concentration of 5 mg/kg based on the body weight of the mice.
FIG. 9 and FIG. 10 illustrated the results observed on the effect of 6-BIO and its derivatives on neurodegenerative disorders. FIG. 9 depicts the effect of administration of 5 mg/kg of 6-BIO on (A) the latency to fall of various cohorts namely placebo mice, MPTP mice (Parkinsonian mice) and the MPTP mice administered with 6-BIO (MPTP+Co) was assessed by rotarod test (B) Representative trajectory maps of all mentioned cohorts as analysed by open field test. (C) Periphery distance travelled by all indicated cohorts as assessed by open field test. […]

[9] = Group II (P10-80), recorded P42/P80
[10] = Group III (P30-80), recorded P80

For `COc1ccc2c(c1)NC(=O)C2=C1Nc2ccccc2C1=NO` [6-MIO, 6-methoxyindirubin oxime], the Levels of autolysosomes [1] was “increased” and the Levels of autophagosomes [1] was “increased”.

For `O=C1Nc2cc(Br)ccc2/C1=C1/Nc2ccccc2/C1=N\O` [6-BIO, (2′Z, 3′E)-6-Bromoindirubin-3′-oxime], the “Open field, Anxiety (number of entries in the centre)” value (“Open field, Anxiety” for short) ([2]; Group I (P10-16), recorded P16) was “anxiety was corrected”, the “Open field, Motor function (hyperactivity, total distance travelled)” value (“Open field, Motor function” for short) ([2]; Group I (P10-16), recorded P16) was “hyperactivity was corrected” and the “Open field, Anxiety” value ([2]; Group I (P10-16), recorded P80) was “anxiety was corrected; also recorded: ameliorates”. For the same molecule, the “Open field, Motor function” value ([2]; Group I (P10-16), recorded P80) was “partial correction of hyperactivity; also recorded: ameliorates hyperactivity”, the “Open field, Anxiety” value [2, 9] was “anxiety was corrected” and the “Open field, Motor function” value [2, 9] was “partial correction was observed”. For the same molecule, the “Open field, Anxiety” value [2, 10] was “partial correction of the anxiety”, the “Open field, Motor function” value [2, 10] was “no rescue behaviour” and the “Novel Object Recognition (memory, discrimination index)” value ([3]; Group I (P10-16), recorded P80) was “Corrected”. For the same molecule, the “Novel Object Recognition (memory, discrimination index)” value [3, 9] was “Corrected”, the “Novel Object Recognition (memory, discrimination index)” value ([3]; Group III (P30-80), recorded P80, 5 mg/kg) was “corrected the memory deficits” and the “Memory deficits (novel object recognition, discrimination index)” value ([3]; all three age groups, behaviour at 80 days) was “substantially corrected memory deficits”. For the same molecule, the “Social Interference (social interaction, time with stranger 1 vs empty jar)” value ([4]; Group I (P10-16), recorded P80) was “Corrected”, the “Social Preference (time with stranger 2 vs stranger 1)” value ([4]; Group I (P10-16), recorded P80, 5 mg/kg) was “lack of improvement” and the “Social Interference (social interaction, time with stranger 1 vs empty jar)” value [4, 9] was “Corrected”. The “Social Preference (time with stranger 2 vs stranger 1)” value [4, 9] was “Corrected”, the “Social Interference (social interaction, time with stranger 1 vs empty jar)” value [4, 10] was “Corrected” and the “Social Preference (time with stranger 2 vs stranger 1)” value [4, 10] was “Corrected”. The “Social interaction: time spent with stranger 1 as compared to the empty jar” value ([4]; all age groups, recorded at P80) was “comparable to wild type mice”, the “Seizure threshold (fluoroethyl-based, tonic-clonic)” value [5] was “corrected the seizure threshold” and the Long term potential [6, 9] was “Corrected”. The Long term potential [6, 10] was “Corrected”, the “EGABA, Cl^− reversal potential” value [7] was “Corrected” and the “Effect on MPTP-induced neurodegeneration (rotarod latency to fall, open field periphery distance)” value [8] was “protects neurons from degeneration”. For the same molecule, the Levels of autophagosomes [1] was “increased”.

For `O=C1Nc2cc(Br)ccc2/C1=C1/Nc2ccccc2/C1=N\OCCO` [compound 51, (2Z,3E)-6′-bromo-3-((2-hydroxyethoxy)imino)-[2,3′-biindolinylidene]-2′-one], the Levels of autolysosomes [1] was “increased” and the Levels of autophagosomes [1] was “increased”.

In the case of `O=C1Nc2cc(Br)ccc2/C1=C1/Nc2ccccc2/C1=N\O` [compound 50, (2Z,3E)-6′-bromo-3-(hydroxyimino)-[2,3′-biindolinylidene]-2′-one], the Levels of autolysosomes [1] was “increased”.
